From patent US9981976B2, “Piperidine substituted pyrazolo[1,5-A]pyrimidine derivatives with inhibitory activity on the replication of the respiratory syncytial virus (RSV)” (priority 2014, dated 2018)

How the values were obtained:
rgRSV224 virus = assay: microbe, parasite or virus in culture; format: cell-based, respiratory syncytial virus (RSV); conditions: for EC50: human respiratory syncytial virus, HeLa, 72 h, read-out: RSV HELA pEC50, rgRSV224 virus (MOI=1), HeLa cells, GFP expression three days post-virus exposure (converted)
HeLa cells = assay: Cytotoxicity in HeLa cells, ATP content (ATPlite kit); conditions: three days incubation, CC50 = 50% concentration for cytotoxicity
Protocol: Black 384-well clear-bottom microtiter plates (Corning, Amsterdam, The Netherlands) were filled via acoustic drop ejection using the echo liquid handler (Labcyte, Sunnyvale, Calif.). 200 nL of compound stock solutions (100% DMSO) were transferred to the assay plates. 9 serial 4-fold dilutions of compound were made, creating per quadrant the same compound concentration. The assay was initiated by adding 10 μL of culture medium to each well (RPMI medium without phenol red, 10% FBS-heat inactivated, 0.04% gentamycin (50 mg/mL). All addition steps are done by using a multidrop dispenser (Thermo Scientific, Erembodegem, Belgium). Next, rgRSV224 virus (MOI=1) diluted in culture medium was added to the plates. rgRSV224 virus is an engineered virus that includes an additional GFP gene (Hallak L K, Spillmann D, Collins P L, Peeples M E. Glycosaminoglycan sulfation requirements for respiratory syncytial virus infection; Journal of virology (2000), 74(22), 10508-13) and was in-licensed from the NIH (Bethesda, Md., USA). Finally, 20 μL of a HeLa cell suspension (3,000 cells/well) were plated. Medium, virus- and mock-infected controls were included in each test. The wells contain 0.05% DMSO per volume. Cells were incubated at 37° C. in a 5% CO2 atmosphere. Three days post-virus exposure, viral replication was quantified by measuring GFP expression in the cells by an in house developed MSM laser microscope (Tibotec, Beerse, Belgium). The EC50 was defined as the 50% inhibitory concentration for GFP expression. In parallel, compounds were incubated for three days in a set of white 384-well microtiter plates (Corning) and the cytotoxicity of compounds in HeLa cells was determined by measuring the ATP content of the cells using the ATPlite kit (Perkin Elmer, Zaventem, Belgium) according to the manufacturer's instructions. The CC50 was defined as the 50% concentration for cytotoxicity.

Structure (SMILES): Cc1cccc2nc(NS(C)(=O)=O)nc(N3CCCCC3c3cc4nc(N5CCC5)cc(N5CCOCC5)n4n3)c12 (stereo not drawn) [P9, N-(4-(2-(5-(azetidin-1-yl)-7-morpholinopyrazolo[1,5-a]pyrimidin-2-yl)piperidin-1-yl)-5-methylquinazolin-2-yl)methanesulfonamide]
- EC50 (rgRSV224 virus): 5.01 nM
- SI TOX HELA (HeLa cells): <4.6

Structure (SMILES): CS(=O)(=O)Nc1nc(N2CCCC[C@H]2c2cc3nc(N4CCC4)cc(N4CCOCC4)n3n2)c2cc(Cl)ccc2n1 (stereo in doubt) [P32, N-(4-(2-(5-(azetidin-1-yl)-7-morpholinopyrazolo[1,5-a]pyrimidin-2-yl)piperidin-1-yl)-6-chloroquinazolin-2-yl)methanesulfonamide]
- RSV HELA pEC50 (rgRSV224 virus; rgRSV224 virus (MOI=1), HeLa cells, GFP expression three days post-virus exposure): 7.3
- SI TOX HELA (HeLa cells): <4

Structure (SMILES): CCc1ccc2ncnc(N3CCCCC3c3cc4nc(N5CCC5)cc(N5CCOCC5)n4n3)c2c1C (stereo not drawn) [P63, 4-(5-(azetidin-1-yl)-2-(1-(6-ethyl-5-methylquinazolin-4-yl)piperidin-2-yl)pyrazolo[1,5-a]pyrimidin-7-yl)morpholine]
- EC50 (rgRSV224 virus): 398 nM
- SI TOX HELA (HeLa cells): 4.4

Structure (SMILES): Clc1ccc2ncnc(N3CCCCC3c3cc4nc(N5CCC5)cc(N5CCOCC5)n4n3)c2c1 (stereo not drawn) [P1, 4-(5-(azetidin-1-yl)-2-(1-(6-chloroquinazolin-4-yl)piperidin-2-yl)-pyrazolo[1,5-a]pyrimidin-7-yl)morpholine]
- EC50 (rgRSV224 virus): 794 nM
- SI TOX HELA (HeLa cells): 4.4

Structure (SMILES): Cc1cccc2ncnc(N3CCCC[C@H]3c3cc4nc(N5CCC5)cc(N5CCOCC5)n4n3)c12 [P19, (S)-4-(5-(azetidin-1-yl)-2-(1-(5-methylquinazolin-4-yl)piperidin-2-yl)pyrazolo[1,5-a]pyrimidin-7-yl)morpholine]
- EC50 (rgRSV224 virus): 10 nM
- SI TOX HELA (HeLa cells): <4.3

Structure (SMILES): Cc1c(C2CC2)nc2cc(C3CCCCN3c3ncnc4cccc(C)c34)nn2c1N1CCOCC1 (stereo not drawn) [P47, 4-(5-cyclopropyl-6-methyl-2-(1-(5-methylquinazolin-4-yl)piperidin-2-yl)pyrazolo[1,5-a]pyrimidin-7-yl)morpholine]
- EC50 (rgRSV224 virus): 501 nM
- SI TOX HELA (HeLa cells): 4.6

Structure (SMILES): CS(=O)(=O)Nc1nc(N2CCCCC2c2cc3nc(N4CCC4)cc(N4CCOCC4)n3n2)c2ccccc2n1 (stereo not drawn) [P10, N-(4-(2-(5-(azetidin-1-yl)-7-morpholinopyrazolo[1,5-a]pyrimidin-2-yl)piperidin-1-yl)quinazolin-2-yl)methanesulfonamide]
- EC50 (rgRSV224 virus): 631 nM
- SI TOX HELA (HeLa cells): <4.3

Structure (SMILES): Cc1cccc2ncnc(N3CCCCC3c3cc4nc(N5CCC5)cc(N5CCNCC5)n4n3)c12 (stereo not drawn) [P53, 4-(2-(5-(azetidin-1-yl)-7-(piperazin-1-yl)pyrazolo[1,5-a]pyrimidin-2-yl)piperidin-1-yl)-5-methylquinazoline]
- EC50 (rgRSV224 virus): 50.1 nM
- SI TOX HELA (HeLa cells): 4.6

Structure (SMILES): Cc1cccc2nc(C(=O)NS(C)(=O)=O)nc(N3CCCCC3c3cc4nc(N5CCC5)cc(N5CCOCC5)n4n3)c12 (stereo not drawn) [P69, 4-(2-(5-(azetidin-1-yl)-7-morpholinopyrazolo[1,5-a]pyrimidin-2-yl)-piperidin-1-yl)-5-methyl-N-(methylsulfonyl)quinazoline-2-carboxamide]
- EC50 (rgRSV224 virus): 316 nM
- SI TOX HELA (HeLa cells): <4

Structure (SMILES): Cc1cn2nc(C3CCCCN3c3nc(NS(C)(=O)=O)nc4cccc(C)c34)cc2nc1N1CC(O)C1 (stereo not drawn) [P41, N-(4-(2-(5-(3-hydroxyazetidin-1-yl)-6-methylpyrazolo[1,5-a]-pyrimidin-2-yl)piperidin-1-yl)-5-methylquinazolin-2-yl)methanesulfonamide]
- EC50 (rgRSV224 virus): 79.4 nM
- SI TOX HELA (HeLa cells): <4

Structure (SMILES): COC(=O)c1nc(N2CCCCC2c2cc3nc(N4CCC4)cc(N4CCOCC4)n3n2)c2c(C)cccc2n1 (stereo not drawn) [P67, methyl 4-(2-(5-(azetidin-1-yl)-7-morpholinopyrazolo[1,5-a]pyrimidin-2-yl)piperidin-1-yl)-5-methylquinazoline-2-carboxylate]
- EC50 (rgRSV224 virus): 126 nM
- SI TOX HELA (HeLa cells): <4.3

Structure (SMILES): Clc1cccc2ncnc(N3CCCCC3c3cc4nc(N5CCC5)cc(N5CCOCC5)n4n3)c12 (stereo not drawn) [P35, 4-(5-(azetidin-1-yl)-2-(1-(5-chloroquinazolin-4-yl)piperidin-2-yl)-pyrazolo[1,5-a]pyrimidin-7-yl)morpholine]
- EC50 (rgRSV224 virus): 63.1 nM
- SI TOX HELA (HeLa cells): 4.4

Structure (SMILES): Cc1cccc2ncnc(N3CCCCC3c3cc4nc(N5CCC5)cc(N5CCN(S(C)(=O)=O)CC5)n4n3)c12 (stereo not drawn) [P55, 4-(2-(5-(azetidin-1-yl)-7-(4-(methylsulfonyl)piperazin-1-yl)pyrazolo-[1,5-a]pyrimidin-2-yl)piperidin-1-yl)-5-methylquinazoline]
- EC50 (rgRSV224 virus): 15.8 nM
- SI TOX HELA (HeLa cells): 4.3

Structure (SMILES): CCc1cccc2ncnc(N3CCCCC3c3cc4nc(N5CCC5)cc(N5CCOCC5)n4n3)c12 (stereo not drawn) [P58, 4-(5-(azetidin-1-yl)-2-(1-(5-ethylquinazolin-4-yl)piperidin-2-yl)-pyrazolo[1,5-a]pyrimidin-7-yl)morpholine]
- EC50 (rgRSV224 virus): 501 nM
- SI TOX HELA (HeLa cells): <4

Structure (SMILES): CNC(=O)c1nc(N2CCCCC2c2cc3nc(N4CCC4)cc(N4CCOCC4)n3n2)c2c(C)cccc2n1 (stereo not drawn) [P70, 4-(2-(5-(azetidin-1-yl)-7-morpholinopyrazolo[1,5-a]pyrimidin-2-yl)-piperidin-1-yl)-N,5-dimethylquinazoline-2-carboxamide]
- EC50 (rgRSV224 virus): 631 nM
- SI TOX HELA (HeLa cells): 4.3

Structure (SMILES): Cc1cccc2nc(C(=N)NO)nc(N3CCCCC3c3cc4nc(N5CCC5)cc(N5CCOCC5)n4n3)c12 (stereo not drawn) [P30, 4-(2-(5-(azetidin-1-yl)-7-morpholinopyrazolo[1,5-a]pyrimidin-2-yl)-piperidin-1-yl)-N-hydroxy-5-methylquinazoline-2-carboximidamide]
- EC50 (rgRSV224 virus): 631 nM
- SI TOX HELA (HeLa cells): 4.6

Structure (SMILES): Cc1nc2c(N3CCCCC3c3cc4nc(N5CCC5)cc(N5CCOCC5)n4n3)ncnc2o1 (stereo not drawn) [P65, 7-(2-(5-(azetidin-1-yl)-7-morpholinopyrazolo[1,5-a]pyrimidin-2-yl)-piperidin-1-yl)-2-methyloxazolo[5,4-d]pyrimidine]
- EC50 (rgRSV224 virus): 15.8 nM
- SI TOX HELA (HeLa cells): <4.6

Structure (SMILES): Clc1ccc2ncnc(N3CCCC[C@H]3c3cc4nc(N5CCC5)cc(N5CCOCC5)n4n3)c2c1 [P2, (S)-4-(5-(azetidin-1-yl)-2-(1-(6-chloroquinazolin-4-yl)piperidin-2-yl)-pyrazolo[1,5-a]pyrimidin-7-yl)morpholine]
- EC50 (rgRSV224 virus): 316 nM
- SI TOX HELA (HeLa cells): 4.4

Structure (SMILES): Cc1ccc2ncnc(N3CCCCC3c3cc4nc(N5CCC5)cc(N5CCOCC5)n4n3)c2c1 (stereo not drawn) [P4, 4-(5-(azetidin-1-yl)-2-(1-(6-methylquinazolin-4-yl)piperidin-2-yl)-pyrazolo[1,5-a]pyrimidin-7-yl)morpholine]
- EC50 (rgRSV224 virus): 158 nM
- SI TOX HELA (HeLa cells): <4

Structure (SMILES): CSc1nc(N2CCCCC2c2cc3nc(N4CCC4)cc(N4CCOCC4)n3n2)c2cc(C)ccc2n1 (stereo not drawn) [P57, 4-(5-(azetidin-1-yl)-2-(1-(6-methyl-2-(methylthio)quinazolin-4-yl)-piperidin-2-yl)pyrazolo[1,5-a]pyrimidin-7-yl)morpholine]
- EC50 (rgRSV224 virus): 631 nM
- SI TOX HELA (HeLa cells): 4.5

Structure (SMILES): Cc1cn2nc(C3CCCCN3c3ncnc4cccc(C)c34)cc2nc1N1CC[C@@H](N)C1 (stereo in doubt) [P48, (3 S)-1-(6-methyl-2-(1-(5-methylquinazolin-4-yl)piperidin-2-yl)-pyrazolo[1,5-a]pyrimidin-5-yl)pyrrolidin-3-amine]
- EC50 (rgRSV224 virus): 12.6 nM
- SI TOX HELA (HeLa cells): 4.5

Structure (SMILES): COCCOC(=O)Nc1nc(N2CCCCC2c2cc3nc(N4CCC4)cc(N4CCOCC4)n3n2)c2cc(N3CCOCC3)ccc2n1 (stereo not drawn) [P14, 2-methoxyethyl 4-(2-(5-(azetidin-1-yl)-7-morpholinopyrazolo[1,5-a]-pyrimidin-2-yl)piperidin-1-yl)-6-morpholinoquinazolin-2-ylcarbamate]
- EC50 (rgRSV224 virus): 794 nM
- SI TOX HELA (HeLa cells): <4

Structure (SMILES): Clc1ccc2ncnc(N3CCCC[C@@H]3c3cc4nc(N5CCC5)cc(N5CCOCC5)n4n3)c2c1 [P3, (R)-4-(5-(azetidin-1-yl)-2-(1-(6-chloroquinazolin-4-yl)piperidin-2-yl)pyrazolo[1,5-a]pyrimidin-7-yl)morpholine]
- EC50 (rgRSV224 virus): 3980 nM
- SI TOX HELA (HeLa cells): 4.6

Structure (SMILES): Cc1cn2nc(C3CCCCN3c3ncnc4cccc(C)c34)cc2nc1N1CC(N)C1 (stereo not drawn) [P26, 1-(6-methyl-2-(1-(5-methylquinazolin-4-yl)piperidin-2-yl)pyrazolo-[1,5-a]pyrimidin-5-yl)azetidin-3-amine]
- EC50 (rgRSV224 virus): 25.1 nM
- SI TOX HELA (HeLa cells): 4.3

Structure (SMILES): CS(=O)(=O)Nc1nc(N2CCCC[C@@H]2c2cc3nc(N4CCC4)cc(N4CCOCC4)n3n2)c2cc(Cl)ccc2n1 [P34, (R)—N-(4-(2-(5-(azetidin-1-yl)-7-morpholinopyrazolo[1,5-a]-pyrimidin-2-yl)piperidin-1-yl)-6-chloroquinazolin-2-yl)methanesulfonamide]
- EC50 (rgRSV224 virus): 631 nM
- SI TOX HELA (HeLa cells): 4.3

Structure (SMILES): Cc1cn2nc([C@H]3CCCCN3c3ncnc4cccc(C)c34)cc2nc1N1CC(O)C1 [P24, (R)-1-(6-methyl-2-(1-(5-methylquinazolin-4-yl)piperidin-2-yl)pyrazolo[1,5-a]-pyrimidin-5-yl)azetidin-3-ol]
- EC50 (rgRSV224 virus): > 25100 nM
- SI TOX HELA (HeLa cells): <4.6

Structure (SMILES): Cc1ccc(C)c2c(N3CCCCC3c3cc4nc(N5CCC5)cc(N5CCOCC5)n4n3)ncnc12 (stereo not drawn) [P66, 4-(5-(azetidin-1-yl)-2-(1-(5,8-dimethylquinazolin-4-yl)piperidin-2-yl)-pyrazolo[1,5-a]pyrimidin-7-yl)morpholine]
- EC50 (rgRSV224 virus): 100 nM

Structure (SMILES): Cc1ccc2nc(C)nc(N3CCCC[C@H]3c3cc4nc(N5CC(O)C5)c(C)cn4n3)c2c1 [P43, (S)-1-(2-(1-(2,6-dimethylquinazolin-4-yl)piperidin-2-yl)-6-methyl-pyrazolo[1,5-a]pyrimidin-5-yl)azetidin-3-ol]
- EC50 (rgRSV224 virus): 15800 nM
- SI TOX HELA (HeLa cells): 4.2

Structure (SMILES): CN(C)S(=O)(=O)NC(=O)c1nc(N2CCCCC2c2cc3nc(N4CCC4)cc(N4CCOCC4)n3n2)c2ccccc2n1 (stereo not drawn) [P36, 4-(2-(5-(azetidin-1-yl)-7-morpholinopyrazolo[1,5-a]pyrimidin-2-yl)-piperidin-1-yl)-N—(N,N-dimethylsulfamoyl)quinazoline-2-carboxamide]
- EC50 (rgRSV224 virus): 501 nM
- SI TOX HELA (HeLa cells): <4
